Reference: article PMC10305147 (Life, 2023)

Legend:
[1] = system: bronchial epithelial 16HBE normal cells; conditions: cited from earlier work
normal cells = conditions: cited from earlier work; for effect on normal cells: cause death for various cancer cells
[2] = target: T1, Acetylcholinesterase (AChE) (Electrophorus electricus, UniProt O42275)
Protocol: (§1) AChE was used to carry out the inhibitory assay using Ellman’s method [23] with modifications. A 0.05 M phosphate buffer, pH 8.0, was used in this protocol. Additionally, 60 µL of the herbal extract was mixed with the same volume of 0.5 mM enzyme solution and 120 µL of phosphate buffer, and kept at 25 °C for 15 min in a flat-bottom 96-well plate. Agent 5, 5′-dithiobis-2-nitrobenzoic acid (DTNB, 30 µL of 0.003 M) and 40 µL of 0.002 M acetylthiocholine iodide (ATCI) were added into the mixture to start the reaction. The reaction was maintained at 25 °C for 10 min before the absorbance was measured at the wavelength of 415 nm. For the control group, 60 µL of phosphate buffer was used instead of 60 µL of the herbal extract solution and the same condition was used for the calculation of enzyme inhibition activity using the following equation:AChE inhibition (%) = (AC − AE)/AC × 100, where AE is the absorbance value measured at 415 nm of the reaction containing herbal extract and enzyme, while AC is the absorbance value at 415 nm of the reaction containing enzyme and phosphate buffer instead of the herbal extract. The samples and berberine chloride (commercial AChE inhibitor) were dissolved in dimethylsulfoxide and eluted at various concentrations using a 0.05 M phosphate buffer and then used for the tests.

[3] = target: T1, Acetylcholinesterase (AChE); assay: biochemical
Protocol: as §1

[4] = target: T1, Acetylcholinesterase (AChE); assay: AChE enzyme inhibition assay (Ellman's method, modified); conditions: IC50, different parts of ELC extracted by MeOH (Table 2)
Protocol: as §1

[5] = adjuvant chemotherapeutic agents; cited from earlier work
HuCC-T1 cancer cells = conditions: cited from earlier work
tumor cell lines = conditions: EGCG from green tea at 40–200 microM; cited from earlier work
293T normal cells = conditions: cited from earlier work
WI38 normal cells = conditions: EGCG from green tea at 40–200 microM; cited from earlier work

T1 sequence (O42275 24-633): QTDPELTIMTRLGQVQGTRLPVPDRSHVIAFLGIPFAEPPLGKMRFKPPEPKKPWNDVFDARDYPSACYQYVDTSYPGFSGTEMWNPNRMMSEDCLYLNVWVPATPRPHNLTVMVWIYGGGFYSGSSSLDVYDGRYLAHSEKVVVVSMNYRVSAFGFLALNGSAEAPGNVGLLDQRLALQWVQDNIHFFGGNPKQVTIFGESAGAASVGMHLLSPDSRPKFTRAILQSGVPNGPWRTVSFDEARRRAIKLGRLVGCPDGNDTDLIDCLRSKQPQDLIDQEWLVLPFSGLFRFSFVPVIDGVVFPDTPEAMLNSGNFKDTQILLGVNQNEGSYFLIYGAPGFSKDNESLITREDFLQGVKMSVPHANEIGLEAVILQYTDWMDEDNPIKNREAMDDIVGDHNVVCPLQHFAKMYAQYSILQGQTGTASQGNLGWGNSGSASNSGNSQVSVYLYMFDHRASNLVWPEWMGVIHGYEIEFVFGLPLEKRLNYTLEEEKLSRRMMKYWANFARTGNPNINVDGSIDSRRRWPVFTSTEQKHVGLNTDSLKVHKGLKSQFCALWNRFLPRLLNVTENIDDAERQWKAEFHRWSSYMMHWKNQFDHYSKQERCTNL

O=c1cc(-c2ccc(O)cc2)oc2c([C@@H]3O[C@H](CO)[C@@H](O)[C@H](O)[C@H]3O)c(O)cc(O)c12 [Compd 15, vitexin]
effect on bronchial epithelial 16HBE normal cells [1]: non-effect

O=c1c(O)c(-c2ccc(O)c(O)c2)oc2cc(O)cc(O)c12 [Compd 20, quercetin]
effects on normal cells (normal cells): no or low effects on normal cells

O=C(O[C@@H]1Cc2c(O)cc(O)cc2O[C@@H]1c1ccc(O)c(O)c1)c1cc(O)c(O)c(O)c1 [Compd 14, epicatechin gallate]
effect on normal cells (normal cells): no effect on normal cells

O=c1cc(-c2ccc(O)cc2)oc2cc(O)cc(O)c12 [Compd 21, apigenin]
effects on normal cells (normal cells): no or low effects on normal cells

COc1ccc2cc3[n+](cc2c1OC)CCc1cc2c(cc1-3)OCO2 [Berberine chloride, berberine chloride]
inhibition [2]: 98.2 ± 1.8% | IC50 [3]: 934 µM | IC50 [4]: 972 µM

O=c1cc(-c2ccc(O)cc2)oc2cc(O[C@@H]3O[C@H](CO)[C@@H](O)[C@H](O)[C@H]3O)cc(O)c12 [Compd 18, apigetrin]
toxicity and side effects via in vivo and clinical trials [5]: trivial toxicity and side effects

Oc1cc(O)c2c(c1)O[C@H](c1ccc(O)c(O)c1)[C@H](O)C2 [Compd 13, epicatechin]
effect on normal cells (normal cells): no effect on normal cells

O=C(O[C@@H]1Cc2c(O)cc(O)cc2O[C@@H]1c1cc(O)c(O)c(O)c1)c1cc(O)c(O)c(O)c1 [Compd 12, epigallocatechin gallate]
toxicity on HuCC-T1 cancer cells (HuCC-T1 cancer cells): toxic | death of tumor cell lines (tumor cell lines): significant death | viability of 293T normal cells (293T normal cells): safe | WI38 normal cells growth affected (WI38 normal cells): 1%

O=c1c(O)c(-c2cc(O)c(O)c(O)c2)oc2cc(O)cc(O)c12 [Compd 19, myricetin]
toxicity and side effects via in vivo and clinical trials [5]: trivial toxicity and side effects

C[C@@H]1O[C@@H](OC[C@H]2O[C@@H](Oc3c(-c4ccc(O)c(O)c4)oc4cc(O)cc(O)c4c3=O)[C@H](O)[C@@H](O)[C@@H]2O)[C@H](O)[C@H](O)[C@H]1O [Compd 17, rutin]
toxicity and side effects via in vivo and clinical trials [5]: trivial toxicity and side effects
